In patent publication US20090005395A1 (Solvay Pharmaceuticals, B.V., priority 2007, published 2009):
Read-outs that look alike come from different tables or passages of the source.

How the values were obtained:
[1] = Plasma pharmacokinetics of sildenafil and its N-oxide; assay type: in vivo; settings: male, NMRI, mouse, mice; for Kp: brain, read-out: Brain/plasma ratio; for AUC: read-out: AUC0→end; for AUC(0-inf): Tend = ∞
Procedure: Liquid Chromatography-Tandem Mass Spectrometry (LC-MS/MS) was performed using a Sciex API4000 LC-MS/MS. […] Compound peak area was used for quantification. The calibration curves were fitted to the model y=A+Bx+Cx^2 (y is the peak area of the analyte, x is the nominal calibration level in ng/ml (plasma) or ng/g (brain), A is the intercept, B is the slope and C is the description of the curvature). 1/x^2 weighing was used. LC-MS/MS system performance was monitored using a reference solution injected at standard intervals. […] The Lower Limit Of Quantification (LLOQ) was established at 1.00 ng/ml and 5.00 ng/brain, for plasma and brain samples, respectively. Reversed phase HPLC was performed using gradient elution by a Hypersil BDS C18 100×4.6 mm 3 μm analytical column, with a temperature of 45° C. and a flow of 1.00 ml/min: […]

[2] = Plasma and brain concentrations of N-desmethylsildenafil (pilot experiment); assay type: in vivo, male NMRI mice; settings: mice, i.v. or p.o.; for the N-oxide only observed after oral dosing
Procedure: Sildenafil and its N-oxide were analyzed in mouse plasma and brain samples using a generic bioanalytical method comprising protein precipitation and HPLC with MS/MS detection.
Sample preparation: Proteins in 100 μl plasma were precipitated with acetonitrile, and 5 μl samples of the obtained solution were analyzed. Complete brains were homogenized and centrifuged, and 10 μl samples of the supernatant were analyzed.
Liquid Chromatography-Tandem Mass Spectrometry (LC-MS/MS) was performed using a Sciex API4000 LC-MS/MS. Quantification of the samples was done using extracted calibration samples, treated the same as the study samples in the range of 1-5000 ng/ml and 5.0-5000 ng/brain for plasma and brains samples, respectively. Compound peak area was used for quantification. The calibration curves were fitted to the model y=A+Bx+Cx^2 (y is the peak area of the analyte, x is the nominal calibration level in ng/ml (plasma) or ng/g (brain), A is the intercept, B is the slope and C is the description of the curvature). 1/x^2 weighing was used. LC-MS/MS system performance was monitored using a reference solution injected at standard intervals. The method use for testing was not validated in detail, therefore the reported concentrations were good estimations. The Lower Limit Of Quantification (LLOQ) was established at 1.00 ng/ml and 5.00 ng/brain, for plasma and brain samples, respectively. […]

## CCCc1nn(C)c2c(=O)[nH]c(-c3cc(S(=O)(=O)N4CC[N+](C)([O-])CC4)ccc3OCC)nc12 [Sildenafil-N-oxide, 1-[[3-(6,7-dihydro-1-methyl-7-oxo-3-propyl-1H-pyrazolo[4,3-d]pyrimidin-5-yl)-4-ethoxyphenyl]sulfonyl]-4-methyl-4-oxido-piperazine]
[1]; iv, i.v. 1 mg/kg
  Kp: 0.5
[1]; po, p.o. 10 mg/kg
  Kp: 2.5
[1]; iv, plasma, i.v. 1 mg/kg
  Tmax: 0 h
  half-life: 0.4 h
  AUC(0-inf): 125 ng·h/mL
[1]; iv, plasma, i.v. 1 mg/kg, Tend = 3 hrs
  AUC: 125 ng·h/mL
[1]; iv, plasma, i.v. 1 mg/kg, extrapolated to T0 (time zero), read-out: Cmax (C0)
  Cmax: 495 ng/mL
[1]; plasma, iv, i.v. 1 mg/kg
  Vd: 5 L/kg
  clearance: 133 mL/min/kg
[1]; plasma, po, 10 mg/kg, i.v.
  bioavailability: 1.5%
[1]; po, plasma, p.o. 10 mg/kg
  Tmax: 1 h
  half-life: 5.1 h
  AUC(0-inf): 18.8 ng·h/mL
[1]; po, plasma, p.o. 10 mg/kg, Tend = 24 hrs
  AUC: 10.8 ng·h/mL
[1]; po, plasma, p.o. 10 mg/kg, read-out: Cmax
  Cmax: 2.7 ng/mL
[2]
  metabolism to N-desmethylsildenafil: metabolized to N-desmethylsildenafil
